Values of other authors, collected in patent US20160199317A1, “ESTRADIOL CONTAINING TRANSDERMAL DRUG DELIVERY SYSTEMS AND COMPOSITIONS” (3M INNOVATIVE PROPERTIES COMPANY, priority 2013, published 2016).

Conditions: background statement

half-life: about one
SMILES: C[C@]12CC[C@@H]3c4ccc(O)cc4CC[C@H]3[C@@H]1CC[C@@H]2O [estradiol, estra-1,3,5(10)-triene-3,17β-diol]
